Key:
Assay in all cases: fitness (endpoint OD595 vs no drug) (fraction); higher = more growth
B. subtilis 168 = tested on: B. subtilis 168
Summary of the method: (§1)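 Fitness was defined as the optical density at the transition into stationary phase relative to the robust mean of no-drug control wells. Values were capped at 1. Cultures were started at OD595 0.01 in 384-well plates (30 µl, or 55 µl for S. pneumoniae) in TSB, LB Lennox or CY at 37 °C. OD595 was recorded every 30 min over 14 h, with the first reading subtracted as background.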

S. aureus DSM 20231 = tested on: S. aureus DSM 20231
Summary of the method: as §1

S. pneumoniae D39V = tested on: S. pneumoniae D39V
Summary of the method: as §1

CN(C)[C@@H]1C(O)=C(C(N)=O)C(=O)[C@@]2(O)C(O)=C3C(=O)c4c(O)ccc(Cl)c4[C@@](C)(O)[C@H]3C[C@@H]12 [Chlortetracycline] + COc1cccc2c1C(=O)c1c(O)c3c(c(O)c1C2=O)C[C@@](O)(C(=O)CO)C[C@@H]3O[C@H]1C[C@H](N)[C@H](O)[C@H](C)O1 [Doxorubicin]
Conditions	fitness
B. subtilis 168, first compound 0.0475 µg/mL, partner 0.625 µg/mL	0.895
B. subtilis 168, first compound 0.0475 µg/mL, partner 1.25 µg/mL	0.845
B. subtilis 168, first compound 0.0475 µg/mL, partner 2.5 µg/mL	0.717
B. subtilis 168, first compound 0.095 µg/mL, partner 0.625 µg/mL	0.789
B. subtilis 168, first compound 0.095 µg/mL, partner 1.25 µg/mL	0.775
B. subtilis 168, first compound 0.095 µg/mL, partner 2.5 µg/mL	0.56
B. subtilis 168, first compound 0.19 µg/mL, partner 0.625 µg/mL	0.44
B. subtilis 168, first compound 0.19 µg/mL, partner 1.25 µg/mL	0.404
B. subtilis 168, first compound 0.19 µg/mL, partner 2.5 µg/mL	0.256
S. aureus DSM 20231, first compound 0.012 µg/mL, partner 0.625 µg/mL	0.632
S. aureus DSM 20231, first compound 0.012 µg/mL, partner 1.25 µg/mL	0.671
S. aureus DSM 20231, first compound 0.012 µg/mL, partner 2.5 µg/mL	0.54
S. aureus DSM 20231, first compound 0.024 µg/mL, partner 0.625 µg/mL	0.346
S. aureus DSM 20231, first compound 0.024 µg/mL, partner 1.25 µg/mL	0.358
S. aureus DSM 20231, first compound 0.048 µg/mL, partner 0.625 µg/mL	0.135
S. aureus DSM 20231, first compound 0.048 µg/mL, partner 1.25 µg/mL	0.1
S. aureus DSM 20231, first compound 0.048 µg/mL, partner 2.5 µg/mL	0.0901
S. pneumoniae D39V, first compound 0.012 µg/mL, partner 0.25 µg/mL	0.829
S. pneumoniae D39V, first compound 0.012 µg/mL, partner 0.5 µg/mL	0.797
S. pneumoniae D39V, first compound 0.012 µg/mL, partner 1 µg/mL	0.714
S. pneumoniae D39V, first compound 0.024 µg/mL, partner 0.25 µg/mL	0.512
S. pneumoniae D39V, first compound 0.024 µg/mL, partner 0.5 µg/mL	0.458
S. pneumoniae D39V, first compound 0.024 µg/mL, partner 1 µg/mL	0.451
S. pneumoniae D39V, first compound 0.048 µg/mL, partner 0.25 µg/mL	0.175
S. pneumoniae D39V, first compound 0.048 µg/mL, partner 0.5 µg/mL	0.221
S. pneumoniae D39V, first compound 0.048 µg/mL, partner 1 µg/mL	0.179
S. pneumoniae D39V, first compound 0.375 µg/mL, partner 0.25 µg/mL	0.0266
S. pneumoniae D39V, first compound 0.375 µg/mL, partner 0.5 µg/mL	0.016
S. pneumoniae D39V, first compound 0.375 µg/mL, partner 1 µg/mL	0.0403
S. pneumoniae D39V, first compound 0.75 µg/mL, partner 0.25 µg/mL	0.031
S. pneumoniae D39V, first compound 0.75 µg/mL, partner 0.5 µg/mL	0.0286
S. pneumoniae D39V, first compound 0.75 µg/mL, partner 1 µg/mL	0.0402
S. pneumoniae D39V, first compound 1.5 µg/mL, partner 0.25 µg/mL	0.0296
S. pneumoniae D39V, first compound 1.5 µg/mL, partner 0.5 µg/mL	0.0259
S. pneumoniae D39V, first compound 1.5 µg/mL, partner 1 µg/mL	0.052

S. aureus DSM 20231, first compound 0.006 µg/mL, one replicate
Conditions	fitness
partner 0.625 µg/mL	0.719
partner 1.25 µg/mL	0.685
partner 2.5 µg/mL	0.64

CC(=O)Oc1ccccc1C(=O)O [Acetylsalicylic acid] + CN(C)[C@@H]1C(O)=C(C(N)=O)C(=O)[C@@]2(O)C(O)=C3C(=O)c4c(O)ccc(Cl)c4[C@@](C)(O)[C@H]3C[C@@H]12 [Chlortetracycline]
S. aureus DSM 20231, partner 0.006 µg/mL, one replicate
Conditions	fitness
first compound 250 µg/mL	0.686
first compound 500 µg/mL	0.525
first compound 1000 µg/mL	0.342

fitness
Conditions	partner 0.012 µg/mL	partner 0.024 µg/mL	partner 0.048 µg/mL	partner 0.375 µg/mL	partner 0.75 µg/mL	partner 1.5 µg/mL
S. aureus DSM 20231, first compound 250 µg/mL	0.525	–	–	–	–	–
S. aureus DSM 20231, first compound 500 µg/mL	0.467	0.221	0.0964	–	–	–
S. aureus DSM 20231, first compound 1000 µg/mL	0.21	0.0899	0.0347	–	–	–
S. pneumoniae D39V, first compound 250 µg/mL	0.842	0.658	0.322	0.123	0.119	0.101
S. pneumoniae D39V, first compound 500 µg/mL	0.831	0.606	0.281	0.129	0.0804	0.138
S. pneumoniae D39V, first compound 1000 µg/mL	0.669	0.47	0.297	0.0772	0.0378	0.0721

CN(C)[C@@H]1C(O)=C(C(N)=O)C(=O)[C@@]2(O)C(O)=C3C(=O)c4c(O)ccc(Cl)c4[C@@](C)(O)[C@H]3C[C@@H]12 [Chlortetracycline] + Cn1nnc(-c2ccc(-c3ccc(N4C[C@H](CO)OC4=O)cc3F)cn2)n1 [Tedizolid]
S. aureus DSM 20231, first compound 0.006 µg/mL, one replicate
Conditions	fitness
partner 0.0625 µg/mL	0.696
partner 0.125 µg/mL	0.659
partner 0.25 µg/mL	0.361

fitness
Conditions	first compound 0.012 µg/mL	first compound 0.024 µg/mL	first compound 0.048 µg/mL	first compound 0.375 µg/mL	first compound 0.75 µg/mL	first compound 1.5 µg/mL
S. aureus DSM 20231, partner 0.0625 µg/mL	0.496	0.236	0.0517	–	–	–
S. aureus DSM 20231, partner 0.125 µg/mL	0.532	0.172	0.0562	–	–	–
S. aureus DSM 20231, partner 0.25 µg/mL	0.25	0.161	0.102	–	–	–
S. pneumoniae D39V, partner 0.03125 µg/mL	0.966	0.949	0.944	–	–	–
S. pneumoniae D39V, partner 0.0625 µg/mL	0.95	0.962	0.878	–	–	–
S. pneumoniae D39V, partner 0.125 µg/mL	0.795	0.789	0.845	0.0202	0.0366	0.0518
S. pneumoniae D39V, partner 0.25 µg/mL	–	–	–	0.0375	0.043	0.0385
S. pneumoniae D39V, partner 0.5 µg/mL	–	–	–	0.0294	0.0348	0.0435

CC(=O)Oc1ccccc1C(=O)O [Acetylsalicylic acid] + C[C@@H]1O[C@@H]1P(=O)(O)O [Fosfomycin]
fitness
Conditions	first compound 250 µg/mL	first compound 500 µg/mL	first compound 1000 µg/mL
S. aureus DSM 20231, partner 0.781 µg/mL	0.621	0.619	0.51
S. aureus DSM 20231, partner 1.562 µg/mL	0.537	0.546	0.438
S. aureus DSM 20231, partner 3.124 µg/mL	0.487	0.452	0.283
S. pneumoniae D39V, partner 1.25 µg/mL	0.989	0.955	0.862
S. pneumoniae D39V, partner 2.5 µg/mL	0.939	0.939	0.82
S. pneumoniae D39V, partner 5 µg/mL	0.831	0.88	0.791

CC(=O)Oc1ccccc1C(=O)O [Acetylsalicylic acid] + Cc1onc(-c2ccccc2)c1C(=O)N[C@@H]1C(=O)N2[C@@H]1SC(C)(C)[C@@H]2C(=O)O [Oxacillin]
fitness
Conditions	first compound 250 µg/mL	first compound 500 µg/mL	first compound 1000 µg/mL
S. aureus DSM 20231, partner 0.0156 µg/mL	0.763	0.656	0.561
S. aureus DSM 20231, partner 0.0312 µg/mL	0.583	0.548	0.519
S. aureus DSM 20231, partner 0.0625 µg/mL	0.494	0.508	0.393
S. pneumoniae D39V, partner 0.005 µg/mL	0.987	0.959	0.921
S. pneumoniae D39V, partner 0.01 µg/mL	0.969	0.984	–
S. pneumoniae D39V, partner 0.02 µg/mL	0.886	0.91	–
S. pneumoniae D39V, partner 0.04 µg/mL	0.501	0.643	–

CC(=O)Oc1ccccc1C(=O)O [Acetylsalicylic acid] + CN1C2=CC=CC=C2N=C3C1=CC=CC3=O [Pyocyanin]
fitness
Conditions	first compound 250 µg/mL	first compound 500 µg/mL	first compound 1000 µg/mL
S. aureus DSM 20231, partner 1.25 µg/mL	0.826	0.679	0.525
S. aureus DSM 20231, partner 2.5 µg/mL	0.751	0.607	0.437
S. aureus DSM 20231, partner 5 µg/mL	0.611	0.551	0.268
S. pneumoniae D39V, partner 0.325 µg/mL	≥ 1	0.995	0.917
S. pneumoniae D39V, partner 0.65 µg/mL	1	0.98	0.681
S. pneumoniae D39V, partner 1.3 µg/mL	0.863	0.722	0.467

— the supplement of paper PMC10627819
